Laboratory results as given in US20250099420A1, “SMALL MOLECULE MODULATORS OF GPR139 COMPLEX” (University of Florida Research Foundation, Incorporated, priority 2022, published 2025).
Like-named read-outs stand apart in the source and are kept apart here.

Columns and labels:
parental HEK cells = experiment: HEK parental Agonist Counterscreen Assay (non-transfected cells); type: cell-based; conditions: for Averaged Max % Response (±St. Dev.): activity relative to known control
Text: The high control for the agonist counterscreen was Forskolin not acetylcholine.

GPR139 = target: T1, GPR139 (Homo sapiens, UniProt Q6DWJ6); experiment: GPR139 Agonist titration / agonist counterscreen assay (calcium detection, HEK-GPR139 cells); type: cell-based; design: expressed in transfected cells; host or cells: HEK Aequorin cells, Maxcyte transient transfection; conditions: GPR139 Agonist Activity; for EC50: read-out: EC50; for Averaged Max % Response (±St. Dev.): activity relative to known control
T1 sequence (Q6DWJ6 1-353): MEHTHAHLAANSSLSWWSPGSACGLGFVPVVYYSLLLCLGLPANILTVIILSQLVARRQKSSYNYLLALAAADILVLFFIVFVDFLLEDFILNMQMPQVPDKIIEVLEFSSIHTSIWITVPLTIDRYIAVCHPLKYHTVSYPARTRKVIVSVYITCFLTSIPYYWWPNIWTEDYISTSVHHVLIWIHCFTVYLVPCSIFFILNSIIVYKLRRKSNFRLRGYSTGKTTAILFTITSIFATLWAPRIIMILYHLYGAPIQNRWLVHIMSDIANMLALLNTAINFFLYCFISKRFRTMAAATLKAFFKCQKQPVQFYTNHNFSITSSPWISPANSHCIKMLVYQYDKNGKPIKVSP
Experimental: GPR activity was assessed using a calcium detection assay. […] Negative control samples were treated with DMSO. […] Intracellular calcium was measured using Calcium 5.

[1] = Homo sapiens, HEK293, HEK Agonist Activity section of Table 4 (parental HEK counterscreen)
[2] = HEK Agonist Activity, parental non-transfected HEK cells
[3] = Homo sapiens, HEK293, HEK Agonist Activity, parental non-transfected HEK cells
[4] = values printed in E-notation without unit
[5] = HEK Agonist Activity section of Table 4 (parental HEK counterscreen)

SMILES	Lipophilic Efficiency (logD) (parental HEK cells; HEK Agonist Activity section)	Lipophilic Efficiency (logP) (parental HEK cells; HEK Agonist Activity section)	Averaged Max % Response (±St. Dev.) (parental HEK cells; HEK Agonist Activity section) [%]	EC50 (parental HEK cells; [1]) [µM]	Averaged Max % Response (±St. Dev.) (GPR139) [%]	Lipophilic Efficiency (logD) (parental HEK cells; HEK Agonist Activity)	Lipophilic Efficiency (logP) (parental HEK cells; HEK Agonist Activity)	Averaged Max % Response (±St. Dev.) (parental HEK cells; HEK Agonist Activity) [%]	Lipophilic Efficiency (logD) (GPR139; based on logD)	Lipophilic Efficiency (logP) (GPR139; based on logP)	Efficiency Ligand (GPR139; ligand efficiency)	Hill Slope (GPR139; fitted dose-response curve)	EC50 (GPR139; [4]) [µM]	also measured
CC1CCCCN1C(=O)CN1C(=O)C2(CCc3ccccc3C2)NC1=S (stereo not drawn) [SR-01000044433]	2.90	2.90	12.49 ± 3.39	> 14.3	96.03 ± 12.11	–	–	–	–	–	–	–	–	Efficiency Ligand (GPR139): 0.33; Hill Slope (GPR139): 0.97; Lipophilic Efficiency (logD) (GPR139): 4.10; Lipophilic Efficiency (logP) (GPR139): 4.10; EC50 (GPR139; HEK-GPR139 cells): 0.896 µM
COc1cccc(C(=O)NNC(=O)CCCOc2ccc(Cl)cc2Cl)c1 [SR-01000205482]	–	–	–	–	120.13 ± 6.96	1.53	1.52	−5.45 ± 10.43	5.35	5.34	0.47	–	–	EC50 (parental HEK cells; [2]): > 14.1 µM
COc1ccc(NC(=O)NCC2CC(=O)N(c3ccccc3)C2)cc1 (stereo not drawn) [SR-01000912290]	–	–	–	–	103.55 ± 8.13	3.12	3.12	20.29 ± 5.75	6.11	6.11	0.44	1.13	0.0143	EC50 (parental HEK cells; [3]): > 14.1 µM
Cc1ccccc1CN1CCN(CC(=O)NCCc2ccc(Cl)cc2)C1=O [SR-01000093460]	–	–	–	–	112.00 ± 16.24	1.85	1.85	109.44 ± 22.66	6.04	6.04	0.47	–	–	Hill Slope (parental HEK cells; HEK Agonist Activity): 15.09; EC50 (parental HEK cells; [2]): 11 µM
COc1ccc(OC)c(NC(=O)NNC(=O)C(C)Oc2ccc(Cl)cc2Cl)c1 (stereo not drawn) [SR-01000276878]	–	–	–	–	97.36 ± 11.63	1.62	1.58	6.40 ± 8.50	4.40	4.36	0.38	0.75	0.0239	EC50 (parental HEK cells; [3]): > 14.1 µM
C=C1N=C(NC2CCCCCC2)c2ccccc2N1 [SR-01000565308]	1.03	0.98	25.00 ± 13.25	> 17.5	90.10 ± 8.93	–	–	–	–	–	–	–	–	Efficiency Ligand (GPR139): 0.45; Hill Slope (GPR139): 1.89; Lipophilic Efficiency (logD) (GPR139): 2.40; Lipophilic Efficiency (logP) (GPR139): 2.36
O=C(CSCc1ccc(Cl)cc1Cl)NNC(=O)c1ccccc1 [SR-01000295701]	–	–	–	–	126.44 ± 4.55	1.19	1.17	−4.01 ± 2.60	5.48	5.47	0.56	–	< 0.000716	EC50 (parental HEK cells; [2]): > 14.1 µM
CC(=O)c1cccc(C(C)(C)CC(=O)CNC(=O)c2ccccc2)c1 [SR-01000031674]	–	–	–	–	113.33 ± 7.65	2.46	2.46	35.54 ± 2.15	6.57	6.57	0.50	0.44	–	EC50 (parental HEK cells; [3]): > 15 µM
CCc1cc(C2=C/C(=C/c3c(OC)ccc4ccccc34)C(=O)O2)cc(OC)c1OC [SR-01000551463]	0.71	0.71	18.60 ± 9.91	> 12.2	110.88 ± 6.83	–	–	–	3.11	3.11	0.33	0.64	0.0496	–
CN(C)CCOc1cc(-c2cn[nH]c2)ccc1NC(=O)C1COc2ccc(F)cc2C1.O=C(O)C(F)(F)F.O=C(O)C(F)(F)F (stereo not drawn) [SR-00000004118]	–	–	13.55 ± 13.03	–	94.30 ± 8.24	–	–	–	–	–	–	1.08	–	EC50 (parental HEK cells; [5]): > 14.1 µM
CC(C)(C)c1cn2cccc(OCc3ccc(Cl)c(Cl)c3)c2n1 [SR-07000004609]	−0.610	−0.614	−5.59 ± 4.81	> 14.1	87.84 ± 4.08	–	–	–	–	–	–	–	–	Efficiency Ligand (GPR139): 0.39; Hill Slope (GPR139): 0.44; Lipophilic Efficiency (logD) (GPR139): 0.98; Lipophilic Efficiency (logP) (GPR139): 0.98; EC50 (GPR139; HEK-GPR139 cells): 0.358 µM
Cc1ccc(CNC(=O)Cn2nc(-c3ccc(C)cc3)ccc2=O)cc1 [SR-01000145456]	1.62	1.62	−11.57 ± 15.53	> 14.1	88.21 ± 16.68	–	–	–	–	–	–	–	–	Efficiency Ligand (GPR139): 0.32; Hill Slope (GPR139): 1.42; Lipophilic Efficiency (logD) (GPR139): 2.66; Lipophilic Efficiency (logP) (GPR139): 2.66; EC50 (GPR139; HEK-GPR139 cells): 1.3 µM
Cc1ccccc1NC(=O)CSC1=C(C#N)C(c2ccccc2C(F)(F)F)C2=C(CCCC2=O)N1 (stereo not drawn) [SR-01000484454]	−0.16	−0.16	27.15 ± 8.69	–	96.91 ± 19.53	–	–	–	1.98	1.98	0.28	0.52	0.0853	EC50 (parental HEK cells; [5]): > 11.9 µM
O=C(Cc1cccc2ccccc12)NCC(=O)NNC(=O)c1ccco1 [SR-01000069451]	3.83	3.83	25.95 ± 1.00	> 14.4	95.18 ± 9.10	–	–	–	6.21	6.20	0.39	1.06	0.0605	–
CC(NC(=O)CN1CCN(Cc2ccc(Cl)cc2)C1=O)c1ccccc1 (stereo not drawn) [SR-01000105214]	2.13	2.13	−5.28 ± 2.10	> 14.1	114.03 ± 9.34	–	–	–	3.89	3.89	0.36	0.51	0.245	–
